pEC50: −log10 of the molar value. Read-outs that look alike come from different tables or passages of the source.
Assays:
Format in all cases: cell-based
[1] = Cytotoxicity test 1, HepG2 cells (MTT assay); conditions: human
Experimental: (§1) The above nucleoside derivatives were also subjected to cytotoxicity tests on the MT-2 cells and HepG2 cells. Together with the medium to which each nucleoside derivative at each concentration after serial dilution was added, the MT-2 cells were seeded at a concentration of 1×10^4, whereas the HepG2 cells were seeded at a concentration of 1×10^4. Thus, these cells were cultured in the presence of each nucleoside derivative at various concentrations for 7 days under the standard culture conditions of 37° C. and 5% CO2, and thereafter the number of live cells in each well was quantified by an MTT assay. Based on the numbers of live cells obtained, the CC50 was calculated for each nucleoside derivative.

[2] = Cytotoxicity test 1, MT-2 cells (MTT assay); conditions: human
Experimental: as §1

[3] = tested on: HIV-1 LAI; experiment: Evaluation of anti-HIV activity (MT-2 cells exposed to HIV-1 LAI, MTT assay); conditions: Human immunodeficiency virus 1, MT2, 168 h, 7 days, read-out: Antiviral activity, EC50 HIV-1
Excerpt: HIV-1 LAI was used as a wild-type HIV-1 molecular clone. In addition, MT-2 cells were used as cells to be infected. These cells were continuously cultured and maintained in a RPMI-1640 medium containing 10% FCS and supplemented with the aforementioned antibiotics. The MT-2 cells were exposed to HIV-1 LAI virus in an amount of 50 times the 50% infectious concentration (TCID 50), and the resultant MT-2 cells and a medium supplemented with each of the nucleoside derivatives at each of concentrations after serial dilution were together seeded into each cell of a 96-well cell culture dish at a concentration of 1×10^4 cells/mL. Then, after culturing for 7 days in the presence of each nucleoside derivative under standard culture conditions of 37° C. and 5% CO2, the number of live cells in each well was quantified by MTT assay. Based on the numbers of live cells obtained, the EC50 value was calculated and the anti-HIV activity of each nucleoside derivative was evaluated.

[4] = tested on: HBV; experiment: Evaluation of anti-HBV activity (HepG2 2.2.15.7 cells, HBV DNA qPCR); conditions: Hepatitis B virus
Experimental: HepG2 2.2.15.7 cells were used as test cells. The HepG2 2.2.15.7 cells were prepared by using, as parent cell lines, HepG2 2.2.15 cells prepared so as to continuously produce HBV by introducing the HBV genes into human hepatoma cell lines (HepG2 cells). Meanwhile, the HepG2 2.2.15.7 cells were maintained by continuous culturing in DMEM containing 10% fetal calf serum, G418 (500 μg/ml), and antibiotics (penicillin and kanamycin).
The HepG2 2.2.15.7 cells are HBV continuously producing cells that carry not only genomically integrated DNAs, but also HBV genes produced as episomes. Therefore, the HepG2 2.2.15.7 cells were co-cultured with each nucleoside derivative, the DNA copy number of viruses released into the culture supernatant and the DNA copy number of the viruses present in the HepG2 2.2.15.7 cells were quantified, and a degree of decrease thereof was used as an index of the evaluation of the anti-HBV activity.
More specifically, the epG2 2.2.15.7 cells with a cell viability of 90% or more were seeded in a collagen-coated 96-well cell culture dish at a concentration of 2×10^4 cells/ml, and each nucleoside derivative was added at various concentrations at the same day as the cell seeding. After culturing for 3 days under the standard culture conditions of 37° C. and 5% CO2, the medium was exchanged to a fresh medium containing each nucleoside derivative, and HBV DNA was collected from the culture supernatant on the third day after the exchange for a 1W assay (an assay on day 7 from the start of culture). In addition, a fresh medium containing each nucleoside derivative was further added to the cell plate after the collection of the supernatant, and the culture was further continued for 7 days. For a 2W assay (an assay on day 14 from the start of culture), intracellular HBV DNAs were collected from the HepG2 2.2.15.7 cells. Using these DNAs as a template, the quantitative PCR was performed to find the virus copy number from the calibration curve, and the 50% effect (EC50) for each nucleoside derivative was calculated.
The DNA extractions from the supernatant of the HepG2 2.2.15.7 cells and from inside the cells were carried out using QIAamp Mini Elute virus Spin Kit (manufactured by QIAGEN), and 5 μL of the extracted DNAs was used for the qPCR. The PCR reaction was conducted by using a specific TaqMan probe primer, manufactured by Primer Design Ltd., which detects the HBV core protein region. The PCR reaction was carried out at 95° C. for 15 minutes, followed by 50 cycles of 95° C. for 10 seconds and 60° C. for 60 seconds. The obtained CT was converted to the HBV copy number using a calibration curve obtained from reactions in which HBV DNA fragments at a known concentration were diluted every 10-fold (from to 2×10^8 copies).

[5] = Cytotoxicity test 2, PXB cells (MTT assay); conditions: PXB cells (fresh human hepatocytes)
Experimental: PXB cells were used as test cells. PXB cells were fresh human hepatocytes isolated from chimeric mice with humanized liver and were maintained in a dHCGM medium for PXB cells. Both the cells and the medium are made by PhoenixBio Co., Ltd.
The PXB cells were seeded at 3×10^5 cells/ml on a collagen-coated 96-well plate and cultured together with each compound at each concentration after stepwise dilution for 7 days under the standard culture conditions of 37° C. and 5% CO2, and thereafter the number of live cells in each well was quantified by an MTT assay. Based on the obtained values, the degree of cytotoxicity was determined, and the CC50 value was calculated as the cytotoxicity of each compound.

[6] = tested on: ETV resistant strain (genotype: HBV/Ce); experiment: Evaluation of anti-HBV/Ce activity (Huh-7 cells transfected with ETV resistant strain, Southern blot); conditions: Hepatitis B virus, Huh-7, 72 h, read-out: Antiviral activity, EC50 HBV ETVr
Experimental: Regarding the above nucleoside derivatives, each nucleoside derivative was added to Huh-7 cells transfected with an ETV resistant strain (genotype: HBV/Ce, referred to as “HBV ETVr” in Table 1). After 72 hours from the addition, DNAs were extracted from the cells according to a conventional method, and analyzed by Southern blot using a probe for the HBV gene. Thus, the DNA copy number of the viruses was quantified, and the EC50 value was calculated in the same way as described above.

[7] = 336 h, day 14, intracellular HBV DNA, read-out: Antiviral activity, EC50 HBV 2W assay

SMILES: C=C[C@]1(CO)C(=C)[C@@H](n2cnc3c(=O)[nH]c(N)nc32)C[C@@H]1O
- CC50 at 7 days [1]: > 100000 nM
- CC50 at 7 days [2]: > 100000 nM
- pEC50 [3]: < 6.00
- pEC50 [4, 7]: < 6.00

SMILES: C=C1[C@@H](n2cnc3c(=O)[nH]c(N)nc32)C[C@H](O)[C@@]1(C#N)CO
- CC50 at 7 days [1]: 89000 nM
- CC50 at 7 days [2]: > 100000 nM
- pEC50 [3]: 6.80
- pEC50 [4, 7]: 7.52

SMILES: C=C1[C@@H](n2cnc3c(=O)[nH]c(N)nc32)C[C@H](O)[C@]1(CO)CF
- CC50 at 7 days [1]: > 100000 nM
- CC50 at 7 days [2]: > 100000 nM
- pEC50 [3]: < 6.00
- pEC50 [4, 7]: 7.05

SMILES: C=C1[C@@H](n2cnc3c(=O)[nH]c(N)nc32)C[C@H](O)[C@@]1(O)CO
- CC50 at 7 days [1]: 67000 nM
- CC50 at 7 days [2]: > 100000 nM
- pEC50 [3]: < 6.00
- pEC50 [4, 7]: 8.00

SMILES: C#C[C@]1(CO)C(=C)[C@@H](n2cnc3c(=O)[nH]c(N)nc32)C[C@@H]1O
- CC50 at 7 days [1]: > 100000 nM
- CC50 at 7 days [2]: > 100000 nM
- pEC50 [3]: 7.57
- pEC50 [4, 7]: < 6.00

SMILES: N#C[C@]1(CO)/C(=C\F)[C@@H](n2cnc3c(=O)[nH]c(N)nc32)C[C@@H]1O [(1S,3S,5S,E)-3-(2-Amino-6-oxo-1,6-dihydro-9H-purin-9-yl)-2-(fluoromethylene)-5-hydroxy-1-(hydroxymethyl)cyclopentane-1-carbonitrile]
- CC50 at 7 days [1]: 50000 nM
- CC50 at 7 days [2]: > 100000 nM
- CC50 at 7 days [5]: > 100000 nM
- pEC50 [3]: 7.70
- pEC50 [6]: 7.19
- pEC50 ([4]; 168 h, day 7, HBV DNA in culture supernatant, read-out: Antiviral activity, EC50 HBV 1W assay): 8.52
- pEC50 [4, 7]: 8.15
